“And” between values parts separate entries of the source, which are not always exact repeats. Equal entries are not always repeated. Structures can show the parent of a compound that is named as a salt. Where two headings read alike, the source gives them in different places.
Assays:
[1] = biological target: T1, E. coli DNA gyrase (Escherichia coli, UniProt P0AES4); experiment: E. coli DNA gyrase supercoiling gel assay; format: biochemical
T1 construct: purchased Inspiralis (Norwich, UK)
Procedure: (§1) S. aureus and E. coli DNA gyrase supercoiling and topo IV decatenation assay kits, as well as human topoisomerase II decatenation assay kits, were provided by Inspiralis (Norwich, UK). Assays were performed according to the manufacturer’s instructions. The compounds were serially diluted (1:3 dilutions starting from a 300 μM final concentration) and assayed in a reaction mixture to obtain concentration-response curves in two different replicate experiments. The final concentration of DMSO in the assays was 1% (v/v). The reactions were terminated by the addition of 30 μl chloroform/isoamyl alcohol (26:1) and 30 μl Stop Dye (40% sucrose, 100 mM Tris HCl pH 7.5, 1 mM EDTA, 0.5 μg/ml bromophenol blue), after which the samples were loaded onto a 1.0% TAE ([…]) gel that was then run at 80 V for 2 hours. DNA bands were visualized by ethidium bromide staining the gel for 10 minutes, which was then destained for 10 minutes in water and analysed using gel documentation equipment (Syngene, Cambridge, UK). The DNA in each band was quantitated using Syngene Gene Tools software. Raw gel data (fluorescent band volumes) were converted by the software to percentages of the control (the fully supercoiled or decatenated DNA band). […] The global curve fit non-linear regression tool was used to calculate the IC50 values. The results are expressed as the average values obtained after calculating the IC50 from each replicate run.

[2] = biological target: T2, E. coli Topoisomerase IV (Escherichia coli, UniProt P0AFI2); experiment: E. coli topoisomerase IV decatenation gel assay; format: biochemical
T2 construct: purchased Inspiralis (Norwich, UK)
Procedure: as §1

[3] = biological target: T3, S. aureus DNA gyrase (Staphylococcus aureus, UniProt P20831); experiment: S. aureus DNA gyrase supercoiling gel assay; format: biochemical
T3 construct: purchased Inspiralis (Norwich, UK)
Procedure: as §1

[4] = biological target: T4, S. aureus Topoisomerase IV (Staphylococcus aureus, UniProt P0C1U9); experiment: S. aureus topoisomerase IV decatenation gel assay; format: biochemical
T4 construct: purchased Inspiralis (Norwich, UK)
Procedure: as §1

[5] = biological target: T5, Human Topoisomerase II (Homo sapiens, UniProt P11388); experiment: Human topoisomerase II decatenation gel assay; format: biochemical
T5 construct: purchased Inspiralis (Norwich, UK)
Procedure: as §1

[6] = tested on: S. aureus ATCC 29213; experiment: MIC, broth microdilution; format: cell-based, Staphylococcus aureus; conditions: Staphylococcus aureus, ATCC29213, S. aureus ATCC 29213, ciprofloxacin-susceptible
Procedure: (§2) MICs were determined by the broth microdilution method (the agar dilution method was used only for N. gonorrhoeae) according to CLSI guidelines.

[7] = tested on: E. coli ATCC 25922; experiment: MIC, broth microdilution; format: cell-based; conditions: Escherichia coli, ATCC25922; E. coli ATCC 25922, ciprofloxacin-susceptible
Procedure: as §2

[8] = tested on: E. faecalis ATCC 29212; experiment: MIC, broth microdilution; format: cell-based; conditions: Enterococcus faecalis, ATCC29212; E. faecalis ATCC 29212, ciprofloxacin-susceptible
Procedure: as §2

[9] = tested on: H. influenzae ATCC 49766; experiment: MIC, broth microdilution; format: cell-based; conditions: Haemophilus influenzae, ATCC49766; H. influenzae ATCC 49766, ciprofloxacin-susceptible
Procedure: as §2

[10] = tested on: K. pneumoniae ATCC 700603; experiment: MIC, broth microdilution; format: cell-based; conditions: Klebsiella pneumoniae, ATCC700603; K. pneumoniae ATCC 700603, ciprofloxacin-susceptible
Procedure: as §2

[11] = tested on: P. aeruginosa ATCC 27853; experiment: MIC, broth microdilution; format: cell-based; conditions: Pseudomonas aeruginosa, ATCC27853; P. aeruginosa ATCC 27853, ciprofloxacin-susceptible
Procedure: as §2

[12] = tested on: S. aureus BAA-1720; experiment: MIC, broth microdilution; format: cell-based; conditions: Staphylococcus aureus, BAA1720; S. aureus BAA-1720, ciprofloxacin-resistant
Procedure: as §2

[13] = tested on: S. pneumoniae ATCC 49619; experiment: MIC, broth microdilution; format: cell-based; conditions: Streptococcus pneumoniae, ATCC49619; S. pneumoniae ATCC 49619, ciprofloxacin-susceptible
Procedure: as §2

[14] = tested on: N. gonorrhoeae ATCC 19424; experiment: MIC, agar dilution; format: cell-based; conditions: Neisseria gonorrhoeae, ATCC19424; N. gonorrhoeae ATCC 19424, ciprofloxacin-susceptible
Procedure: as §2

[15] = tested on: N. gonorrhoeae ATCC 49226; experiment: MIC, agar dilution; format: cell-based; conditions: Neisseria gonorrhoeae, ATCC49226; N. gonorrhoeae ATCC 49226, ciprofloxacin-susceptible
Procedure: as §2

[16] = tested on: N. gonorrhoeae WHO K; experiment: MIC, agar dilution; format: cell-based; conditions: Neisseria gonorrhoeae, ciprofloxacin-resistant
Procedure: as §2

[17] = tested on: N. gonorrhoeae WHO L; experiment: MIC, agar dilution; format: cell-based; conditions: Neisseria gonorrhoeae, ciprofloxacin-resistant
Procedure: as §2

[18] = tested on: N. gonorrhoeae WHO N; experiment: MIC, agar dilution; format: cell-based; conditions: Neisseria gonorrhoeae, ciprofloxacin-resistant
Procedure: as §2

[19] = tested on: E. coli TolC- mutant; experiment: microbe, parasite or virus in culture; format: cell-based; conditions: Escherichia coli
Procedure: (§3) The bacterial reference strains used in this study were purchased from ATCC (American Type Culture Collection) via LGC Standards (Middlesex, UK). […] Clinical MDR isolates were provided by Aptuit, the IHMA Europa Sàrl repository (Epalinges, Switzerland) and the Statens Serum Institute (Copenhagen, Denmark).
as §2

[20] = tested on: E. faecalis clinical isolates (n = 12) vanA (6)/vanB (6); experiment: MIC, multidrug-resistant clinical isolates; format: cell-based; conditions: Enterococcus faecalis; for MIC: read-out: MIC range
Procedure: as §3, §2
(§4) The results obtained using clinical isolates are reported as MIC50 and MIC90 values.

[21] = tested on: E. faecium clinical isolates (n = 12) vanA (6)/vanB (6); experiment: MIC, multidrug-resistant clinical isolates; format: cell-based; conditions: Enterococcus faecium; for MIC: read-out: MIC range
Procedure: as §3, §2, §4

[22] = tested on: N. gonorrhoeae clinical isolates (n = 38); experiment: microbe, parasite or virus in culture; format: cell-based, Neisseria gonorrhoeae; conditions: for MIC50 / MIC90: Neisseria gonorrhoeae
Procedure: as §3, §2, §4

[23] = average of two replicate experiments, read-out: IC50 E. coli Gyrase Supercoiling (average)
[24] = replicate Assay 1, read-out: IC50 E. coli gyrase Supercoiling, Assay 1
[25] = replicate Assay 2, read-out: IC50 E. coli gyrase Supercoiling, Assay 2
[26] = average of two replicate experiments, read-out: IC50 E. coli Topoisomerase IV decatenation (average)
[27] = replicate Assay 1, read-out: IC50 E. coli Topoisomerase IV decatenation, Assay 1
[28] = replicate Assay 2, read-out: IC50 E. coli Topoisomerase IV decatenation, Assay 2
[29] = average of two replicate experiments, read-out: IC50 S. aureus Gyrase Supercoiling (average)
[30] = replicate Assay 1, read-out: IC50 S.aureus gyrase Supercoiling, Assay 1
[31] = replicate Assay 2, read-out: IC50 S.aureus gyrase Supercoiling, Assay 2
[32] = replicate Assay 1, read-out: IC50 S. aureus Topoisomerase IV decatenation, Assay 1
[33] = replicate Assay 2, read-out: IC50 S. aureus Topoisomerase IV decatenation, Assay 2
[34] = average of two replicate experiments, read-out: IC50 Human Topoisomerase II decatenation (average)
[35] = replicate Assay 1, read-out: IC50 Human Topoisomerase II (TopoII) decatenation, Assay 1
[36] = replicate Assay 2, read-out: IC50 Human Topoisomerase II (TopoII) decatenation, Assay 2

T5 sequence (P11388 whole entry): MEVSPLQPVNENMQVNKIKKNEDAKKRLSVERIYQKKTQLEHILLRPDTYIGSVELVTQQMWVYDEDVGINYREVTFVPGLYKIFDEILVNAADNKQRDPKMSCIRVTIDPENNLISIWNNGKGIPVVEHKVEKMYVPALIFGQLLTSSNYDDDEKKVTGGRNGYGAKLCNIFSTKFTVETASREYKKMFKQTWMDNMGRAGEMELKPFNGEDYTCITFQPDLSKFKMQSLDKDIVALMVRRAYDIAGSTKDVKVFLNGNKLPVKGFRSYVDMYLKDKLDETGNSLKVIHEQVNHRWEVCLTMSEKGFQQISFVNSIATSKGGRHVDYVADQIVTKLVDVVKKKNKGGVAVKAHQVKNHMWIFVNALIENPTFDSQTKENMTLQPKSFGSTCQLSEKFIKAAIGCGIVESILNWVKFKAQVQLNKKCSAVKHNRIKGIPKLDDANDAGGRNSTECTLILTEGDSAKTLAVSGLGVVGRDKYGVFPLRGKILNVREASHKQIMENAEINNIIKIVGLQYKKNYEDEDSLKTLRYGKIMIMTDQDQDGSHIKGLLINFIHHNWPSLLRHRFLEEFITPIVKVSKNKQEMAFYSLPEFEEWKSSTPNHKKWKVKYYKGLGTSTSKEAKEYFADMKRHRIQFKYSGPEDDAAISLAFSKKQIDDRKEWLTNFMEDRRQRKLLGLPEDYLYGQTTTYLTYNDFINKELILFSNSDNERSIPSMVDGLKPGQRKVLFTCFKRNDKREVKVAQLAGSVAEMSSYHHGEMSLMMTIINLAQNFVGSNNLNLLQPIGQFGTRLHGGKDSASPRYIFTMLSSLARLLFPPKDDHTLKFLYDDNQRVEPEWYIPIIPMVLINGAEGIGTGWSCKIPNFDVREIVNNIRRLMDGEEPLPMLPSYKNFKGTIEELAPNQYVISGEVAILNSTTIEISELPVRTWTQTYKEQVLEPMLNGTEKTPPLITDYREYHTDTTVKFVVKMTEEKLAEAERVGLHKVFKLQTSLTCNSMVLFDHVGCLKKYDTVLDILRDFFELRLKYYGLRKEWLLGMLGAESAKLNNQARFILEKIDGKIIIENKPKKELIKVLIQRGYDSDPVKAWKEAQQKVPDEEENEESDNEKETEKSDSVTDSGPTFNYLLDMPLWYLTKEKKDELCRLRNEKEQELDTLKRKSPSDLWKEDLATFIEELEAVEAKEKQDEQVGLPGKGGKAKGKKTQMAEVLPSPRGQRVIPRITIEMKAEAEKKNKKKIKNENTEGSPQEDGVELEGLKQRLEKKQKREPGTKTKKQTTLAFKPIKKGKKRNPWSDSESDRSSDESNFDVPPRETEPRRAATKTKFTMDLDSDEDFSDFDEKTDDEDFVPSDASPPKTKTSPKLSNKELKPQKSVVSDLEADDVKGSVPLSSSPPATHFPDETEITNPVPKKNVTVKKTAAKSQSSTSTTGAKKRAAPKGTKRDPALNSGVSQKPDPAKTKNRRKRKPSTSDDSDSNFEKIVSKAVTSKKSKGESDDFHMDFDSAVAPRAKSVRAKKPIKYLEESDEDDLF
T1 sequence (P0AES4 whole entry): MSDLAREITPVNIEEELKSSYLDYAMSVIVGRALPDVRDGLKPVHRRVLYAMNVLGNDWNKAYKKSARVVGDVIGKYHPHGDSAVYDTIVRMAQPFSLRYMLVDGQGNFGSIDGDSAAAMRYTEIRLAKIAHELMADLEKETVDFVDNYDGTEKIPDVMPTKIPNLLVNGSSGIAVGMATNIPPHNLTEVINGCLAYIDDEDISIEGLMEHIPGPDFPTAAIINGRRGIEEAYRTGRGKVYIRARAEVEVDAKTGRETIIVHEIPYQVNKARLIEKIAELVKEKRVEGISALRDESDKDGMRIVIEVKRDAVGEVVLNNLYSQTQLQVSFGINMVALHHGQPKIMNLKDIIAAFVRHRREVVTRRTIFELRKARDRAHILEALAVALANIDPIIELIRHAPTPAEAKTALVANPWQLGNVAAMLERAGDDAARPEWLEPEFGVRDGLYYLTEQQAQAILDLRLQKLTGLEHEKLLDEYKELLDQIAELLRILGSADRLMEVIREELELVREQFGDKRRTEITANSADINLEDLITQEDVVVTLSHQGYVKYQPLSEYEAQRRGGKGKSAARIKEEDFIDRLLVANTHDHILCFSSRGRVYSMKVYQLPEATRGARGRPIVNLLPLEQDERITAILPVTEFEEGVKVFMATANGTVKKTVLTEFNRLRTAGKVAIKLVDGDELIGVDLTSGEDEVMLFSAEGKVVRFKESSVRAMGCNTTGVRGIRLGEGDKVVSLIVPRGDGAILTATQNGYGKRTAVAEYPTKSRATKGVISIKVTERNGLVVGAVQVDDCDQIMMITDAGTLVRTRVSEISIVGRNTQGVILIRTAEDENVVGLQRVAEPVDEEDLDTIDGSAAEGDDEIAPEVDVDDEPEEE
T2 sequence (P20083 whole entry): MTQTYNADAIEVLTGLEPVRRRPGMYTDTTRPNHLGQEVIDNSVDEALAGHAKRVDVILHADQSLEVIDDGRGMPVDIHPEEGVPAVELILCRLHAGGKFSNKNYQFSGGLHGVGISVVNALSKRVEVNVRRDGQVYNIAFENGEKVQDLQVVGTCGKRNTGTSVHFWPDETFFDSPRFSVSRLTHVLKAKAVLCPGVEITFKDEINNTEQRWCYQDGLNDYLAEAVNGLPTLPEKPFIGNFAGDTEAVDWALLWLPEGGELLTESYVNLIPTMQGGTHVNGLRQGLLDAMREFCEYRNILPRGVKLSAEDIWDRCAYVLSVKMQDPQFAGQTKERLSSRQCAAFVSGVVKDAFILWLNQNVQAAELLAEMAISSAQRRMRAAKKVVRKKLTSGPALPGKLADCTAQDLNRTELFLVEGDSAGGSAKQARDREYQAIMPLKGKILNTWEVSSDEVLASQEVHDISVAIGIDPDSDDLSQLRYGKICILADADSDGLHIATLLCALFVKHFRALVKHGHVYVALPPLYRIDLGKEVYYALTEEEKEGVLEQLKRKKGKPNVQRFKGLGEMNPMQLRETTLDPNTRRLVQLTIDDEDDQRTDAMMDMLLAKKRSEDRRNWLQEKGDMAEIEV
T2 sequence (P0AFI2 whole entry): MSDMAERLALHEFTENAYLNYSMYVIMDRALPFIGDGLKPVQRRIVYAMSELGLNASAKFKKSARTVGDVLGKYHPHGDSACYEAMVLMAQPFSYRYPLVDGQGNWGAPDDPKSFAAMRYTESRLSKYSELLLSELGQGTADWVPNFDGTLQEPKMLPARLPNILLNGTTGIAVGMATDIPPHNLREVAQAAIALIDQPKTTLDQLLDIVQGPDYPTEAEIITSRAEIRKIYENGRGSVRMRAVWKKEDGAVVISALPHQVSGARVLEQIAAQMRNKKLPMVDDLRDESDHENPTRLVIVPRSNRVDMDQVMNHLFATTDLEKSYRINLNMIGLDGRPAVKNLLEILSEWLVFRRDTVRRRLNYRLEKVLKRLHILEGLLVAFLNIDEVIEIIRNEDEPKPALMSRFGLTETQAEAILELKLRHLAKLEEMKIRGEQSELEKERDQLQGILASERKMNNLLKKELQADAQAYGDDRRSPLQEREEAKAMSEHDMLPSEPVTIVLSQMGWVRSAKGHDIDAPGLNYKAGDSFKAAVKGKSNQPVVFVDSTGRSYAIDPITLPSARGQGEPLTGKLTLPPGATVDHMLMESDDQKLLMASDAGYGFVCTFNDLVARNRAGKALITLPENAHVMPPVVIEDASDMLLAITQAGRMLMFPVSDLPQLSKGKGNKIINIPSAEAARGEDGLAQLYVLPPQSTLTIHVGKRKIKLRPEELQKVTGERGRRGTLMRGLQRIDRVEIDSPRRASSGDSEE

SMILES | IC50 [1, 23] [nM] | IC50 [1, 24] [nM] | IC50 [1, 25] [nM] | IC50 [2, 26] [nM] | IC50 [2, 27] [nM] | IC50 [2, 28] [nM] | IC50 [3, 29] [nM] | IC50 [3, 30] [nM] | IC50 [3, 31] [nM] | IC50 [4, 32] [nM] | IC50 [4, 33] [nM] | IC50 [5, 34] | IC50 [5, 35] [nM] | IC50 [5, 36] [nM] | MIC [6] [µg/mL] | MIC [7] [µg/mL] | MIC [8] [µg/mL] | MIC [9] [µg/mL] | MIC [10] [µg/mL] | MIC [11] [µg/mL] | other results
O=c1oc2ccc(F)cc2c2[nH]c(CN[C@H]3CC[C@H](n4c(=O)cnc5ncc(F)cc54)CC3)cc12 [Compound 4, 8-fluoro-2-({[trans-4-(7-fluoro-2-oxopyrido[2,3-b]pyrazin-1(2H)-yl)cyclohexyl]amino}methyl)[1]benzopyrano[4,3-b]pyrrol-4(1H)-one (formate salt)] | 130 | 150 | 120 | 300 | 500 | 200 | 1000 | 800 | 1200 | 260 | 170 | > 300000 nM | > 300000 | > 300000 | 0.25 | 0.5 | 0.5 | 0.12 | 4 | 2 | IC50 [4]: 220 nM; MIC [12]: 0.5 µg/mL; MIC [13]: 0.25 µg/mL; MIC [14]: ≤ 0.06 µg/mL; MIC [15]: 0.06 µg/mL; MIC [16]: 0.12 µg/mL; MIC [17]: 0.12 µg/mL; MIC [18]: 0.06 µg/mL; MIC [19]: ≤ 0.016 µg/mL; MIC50 [20]: 0.25 µg/mL; MIC90 [20]: 0.5 µg/mL; MIC [20]: 0.12 to 1 µg/mL; MIC50 [21]: 1 µg/mL; MIC90 [21]: 1 µg/mL; MIC [21]: 0.25 to 8 µg/mL; MIC range [22]: 0.004 to 0.12 µg/mL; MIC50 [22]: 0.06 µg/mL; MIC90 [22]: 0.12 µg/mL
COc1cnc2ncc(=O)n([C@H]3CC[C@H](NCc4cc5c(=O)oc6ccc(F)cc6c5[nH]4)CC3)c2c1 [Compound 5, 8-Fluoro-2-({[trans-4-(7-methoxy-2-oxopyrido[2,3-b]pyrazin-1(2H)-yl)cyclohexyl]amino}methyl)[1]benzopyrano[4,3-b]pyrrol-4(1H)-one hydrochloride] | 100 | 90 | 100 | 140 | 120 | 160 | 170 | 160 | 170 | 80 | 60 | 9120 nM and 9000 nM | 5450 | 12800 | 0.5 | 0.5 | 0.25 | 0.12 | 8 | 4 | IC50 ([4]; average of two replicate experiments, read-out: IC50 S. aureus Topoisomerase IV decatenation (average)): 70 nM; MIC [12]: 1 µg/mL; MIC [13]: 0.5 µg/mL; MIC [14]: ≤ 0.06 µg/mL; MIC [15]: 0.125 µg/mL; MIC [16]: 0.25 µg/mL; MIC [17]: 0.25 µg/mL; MIC [18]: 0.12 µg/mL; MIC [19]: ≤ 0.016 µg/mL; MIC50 [20]: 0.5 µg/mL; MIC90 [20]: 2 µg/mL; MIC [20]: 0.25 to 4 µg/mL; MIC50 [21]: 1 µg/mL; MIC90 [21]: 4 µg/mL; MIC [21]: 0.25 to 8 µg/mL; MIC range [22]: 0.016 to 0.25 µg/mL; MIC50 [22]: 0.12 µg/mL; MIC90 [22]: 0.25 µg/mL

— publication PMC7029851, “Antibacterial activity of novel dual bacterial DNA type II topoisomerase inhibitors” (PLoS ONE, 2020)
